{"source": "patent US9328104B2", "about": "“Selective androgen receptor modulators” (Pfizer Inc., priority 2012, dated 2016)", "target": "T1, full length human Androgen Receptor (AR) (Homo sapiens, UniProt P10275)", "T1 construct": "transiently transfected in T225 cm^2 flasks with a full length human Androgen Receptor (AR) cDNA; expressed in transfected cells; host or cells: CV-1 cells (ATCC CCL-70), transiently transfected with AR cDNA in pcDNA3 and ARE-luciferase in pGL3", "T1 sequence (P10275 1-920)": "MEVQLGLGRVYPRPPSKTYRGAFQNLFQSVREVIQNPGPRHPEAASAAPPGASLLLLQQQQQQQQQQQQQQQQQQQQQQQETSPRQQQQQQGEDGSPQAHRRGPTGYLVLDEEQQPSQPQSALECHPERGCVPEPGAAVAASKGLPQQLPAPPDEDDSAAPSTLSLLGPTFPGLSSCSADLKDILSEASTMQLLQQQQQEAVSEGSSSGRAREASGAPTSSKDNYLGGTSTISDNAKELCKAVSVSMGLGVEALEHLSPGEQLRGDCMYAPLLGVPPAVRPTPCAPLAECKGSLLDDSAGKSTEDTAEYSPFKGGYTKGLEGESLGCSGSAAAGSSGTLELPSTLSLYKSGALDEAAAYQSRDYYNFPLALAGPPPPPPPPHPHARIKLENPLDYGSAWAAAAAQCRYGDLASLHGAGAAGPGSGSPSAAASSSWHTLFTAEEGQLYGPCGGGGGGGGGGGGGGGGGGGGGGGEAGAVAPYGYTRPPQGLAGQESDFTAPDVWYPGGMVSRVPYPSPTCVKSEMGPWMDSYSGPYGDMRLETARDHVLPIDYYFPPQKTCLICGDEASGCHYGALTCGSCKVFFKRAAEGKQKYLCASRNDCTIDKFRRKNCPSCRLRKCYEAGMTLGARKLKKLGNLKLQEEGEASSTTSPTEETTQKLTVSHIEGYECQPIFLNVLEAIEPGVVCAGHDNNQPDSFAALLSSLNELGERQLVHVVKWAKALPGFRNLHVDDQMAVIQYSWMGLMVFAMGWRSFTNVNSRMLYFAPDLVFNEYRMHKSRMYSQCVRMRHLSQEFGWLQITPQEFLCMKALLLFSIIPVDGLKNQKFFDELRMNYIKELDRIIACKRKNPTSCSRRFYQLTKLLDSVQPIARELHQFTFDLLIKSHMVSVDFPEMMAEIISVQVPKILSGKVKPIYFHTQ", "assay": "Androgen Receptor-Mediated Transcriptional Assay (ARE-luciferase reporter in transiently transfected CV-1 cells)", "assay_type": "cell-based", "procedure": "Androgen Receptor-Mediated Transcriptional Assay Summary\nCV-1 cells (American Tissue Culture Collection cat# CCL-70) were expanded in Growth Media and transiently transfected in T225 cm^2 flasks with a full length human Androgen Receptor (AR) cDNA in the pcDNA3 expression vector and a human Androgen Response Element (ARE)-luciferase cDNA in the pGL3 vector (both from Invitrogen). DNA (μg) and Lipofectamine (μl) at a ratio of 1:3 were incubated with the cells in a total volume of 55 mL Basal Media for 4 hours. Cells were harvested by trypsinization and frozen back (−150° C. cryomed) at a concentration of 4.3 million cells/mL.\nOn the day of the assay, frozen cells were thawed and re-suspended in Re-suspension Media and plated at 40,000 cells/well (in 100 μL volume) in 96 well white plates and were incubated for at least 4 h at 37° C., 5% CO2. After incubation, cells were treated with the compounds to be screened. 10 mM stocks of the compounds were serially diluted 1:10 in 100% DMSO followed by an additional 1:100 dilution in Assay Media. These dilution series were added to the cell plates resulting in a further 1:10 dilution and a final % DMSO of 0.1%. The vehicle control wells also contained this dilution of DMSO and the positive control wells contained […] (DHT) as an AR agonist at final concentration of 0.3 nM in 0.1% DMSO. Cells were incubated for 16-18 hours at 37° C. and 5% CO2. Then the culture media was removed from and the cells were lysed in 20 μL of cell lysis reagent for 5 minutes at room temperature. 50 μL of luciferase reagent was added to each well and luminescence, over 5 seconds, was measured.\nEC50 (half maximal effective concentration) was calculated from concentration series plots which generated sigmoidal curves. Xlfit software was used to plot the best fit of the % effect vs concentration and to calculate the EC50.\nReagents and Materials used in the Androgen Receptor-Mediated Transcriptional Assay include the following: • Growth Media—DMEM/high glucose—10% FBS: 500 ml phenol red DMEM/high glucose (Gibco, Grand Island N.Y., cat #10569-010), 10% non heat-inactivated Fetal Bovine Serum (FBS) (Atlanta Biologicals, Norcross Ga., cat #S-12450), 1% Nonessential Amino Acids (Gibco, cat #11140-050), 1% Penicillin-Streptomycin (Gibco, cat #15140-122) • Basal Media—phenol red free DMEM/high glucose (Gibco, cat #31053-028)+1% Na Pyruvate (Gibco, cat #11360-070), 1% Nonessential Amino Acids (Gibco, cat #11140-050), 1% GlutaMAX-I (Gibco, cat #35050-061) • Re-suspension Media—basal media+1% Penicillin-Streptomycin (Gibco, cat #15140-122) • Assay Media—basal media+5% charcoal stripped FBS (HyClone, Logan Utah, Cat #SH30068)+1% Penicillin-Streptomycin (Gibco, cat #15140-122) • Cell Lysis Reagent—Promega, Cat #PAE1531 • Luciferase Reagent—Promega, Cat #PAE1483", "data": [{"smiles": "C[C@H](O)[C@H]1CC[C@@H](C)N1c1ccc2c(C#N)nccc2c1", "note": "(single isomer, unassigned) [Compound 39]", "values": [{"measurement": "EC50", "value": 37.3, "unit": "nM"}]}]}
